Legend:
Type in all cases: functional
Conditions in all cases: CF-1, ip
Mus musculus [1] = assay: Anticonvulsant activity in ip dosed albino CF-1 mouse assessed as inhibition of nicotine-induced seizures
Mus musculus [2] = assay: Anticonvulsant activity in ip dosed albino CF-1 mouse assessed as inhibition of strychnine-induced seizures
Mus musculus [3] = assay: Anxiolytic activity in ip dosed albino CF-1 mouse under hypoxic stress
Mus musculus [4] = assay: Effect on motor activity in ip dosed albino CF-1 mouse by pedestal test
Mus musculus [5] = assay: Effect on motor activity in ip dosed albino CF-1 mouse by traction test
Mus musculus [6] = assay: Anticonvulsant activity in ip dosed albino CF-1 mouse assessed as inhibition of pentylenetetrazole-induced seizures
Mus musculus [7] = assay: Anticonvulsant activity in ip dosed albino CF-1 mouse assessed as inhibition of maximal electric shock-induced seizures
Mus musculus [8] = assay: Anticonvulsant activity in ip dosed albino CF-1 mouse assessed as inhibition of thiosemicarbazide-induced seizures
Mus musculus [9] = assay: Effect on motor activity in ip dosed albino CF-1 mouse by dish test
Mus musculus [10] = assay: Effect on motor activity in ip dosed albino CF-1 mouse by chimney test
Mus musculus [11] = assay: Antidepressant activity in ip dosed albino CF-1 mouse assessed as inhibition of ethanol-induced response

## Cc1nnc2n1-c1ccc(Cl)cc1C(c1ccccc1Cl)=NC2O (stereo not given)
Mus musculus [1]
  ED50: 10 mg/kg
Mus musculus [2]
  ED50: > 80 mg/kg
Mus musculus [3]
  ED50: > 100 mg/kg
Mus musculus [4]
  ED50: 11 mg/kg
Mus musculus [5]
  ED50: > 100 mg/kg
Mus musculus [6]
  ED50: 14 mg/kg
Mus musculus [7]
  ED50: > 100 mg/kg
Mus musculus [8]
  ED50: 11.2 mg/kg
Mus musculus [9]
  ED50: 8 mg/kg
Mus musculus [10]
  ED50: 45 mg/kg
Mus musculus [11]
  ED50: > 80 mg/kg

## OCc1nnc2n1-c1ccc(Cl)cc1C(c1ccccc1)=NC2
Mus musculus [1]
  ED50: 0.08 mg/kg
Mus musculus [2]
  ED50: 9.9 mg/kg
Mus musculus [3]
  ED50: 0.02 mg/kg
Mus musculus [5]
  ED50: 8 mg/kg
Mus musculus [6]
  ED50: 0.22 mg/kg
Mus musculus [7]
  ED50: 50 mg/kg
Mus musculus [8]
  ED50: 0.08 mg/kg
Mus musculus [9]
  ED50: 2 mg/kg
Mus musculus [10]
  ED50: 0.63 mg/kg
Mus musculus [11]
  ED50: 1.8 mg/kg

## CN(C)Cc1nnc2n1-c1ccc(Cl)cc1C(c1ccccc1)=NC2O (stereo not given)
Mus musculus [1]
  ED50: 2.2 mg/kg
Mus musculus [2]
  ED50: > 40 mg/kg
Mus musculus [3]
  ED50: 25 mg/kg
Mus musculus [4]
  ED50: 22 mg/kg
Mus musculus [5]
  ED50: 22 mg/kg
Mus musculus [6]
  ED50: 4 mg/kg
Mus musculus [7]
  ED50: > 100 mg/kg
Mus musculus [8]
  ED50: 0.88 mg/kg
Mus musculus [9]
  ED50: 5 mg/kg
Mus musculus [10]
  ED50: 4 mg/kg
Mus musculus [11]
  ED50: > 20 mg/kg

## OCc1nnc2n1-c1ccc(Cl)cc1C(c1ccccc1Cl)=NC2
Mus musculus [1]
  ED50: 0.01 mg/kg
Mus musculus [2]
  ED50: 0.5 mg/kg
Mus musculus [3]
  ED50: 0.5 mg/kg
Mus musculus [4]
  ED50: 0.17 mg/kg
Mus musculus [5]
  ED50: 0.6 mg/kg
Mus musculus [6]
  ED50: 0.018 mg/kg
Mus musculus [7]
  ED50: 89 mg/kg
Mus musculus [8]
  ED50: 0.014 mg/kg
Mus musculus [9]
  ED50: 0.03 mg/kg
Mus musculus [10]
  ED50: 0.14 mg/kg
Mus musculus [11]
  ED50: 0.4 mg/kg

## OCc1nnc2n1-c1ccc(Cl)cc1C(c1ccccc1Cl)=NC2O (stereo not given)
Mus musculus [1]
  ED50: 1 mg/kg
Mus musculus [2]
  ED50: > 80 mg/kg
Mus musculus [3]
  ED50: 30 mg/kg
Mus musculus [4]
  ED50: 44 mg/kg
Mus musculus [5]
  ED50: > 100 mg/kg
Mus musculus [6]
  ED50: 32 mg/kg
Mus musculus [7]
  ED50: > 100 mg/kg
Mus musculus [8]
  ED50: 0.39 mg/kg
Mus musculus [9]
  ED50: 5 mg/kg
Mus musculus [10]
  ED50: 2.2 mg/kg
Mus musculus [11]
  ED50: 50 mg/kg

## OCc1nnc2n1-c1ccc(Cl)cc1C(c1ccccc1)=NC2O (stereo not given)
Mus musculus [1]
  ED50: 6.2 mg/kg
Mus musculus [2]
  ED50: > 80 mg/kg
Mus musculus [3]
  ED50: > 50 mg/kg
Mus musculus [4]
  ED50: > 80 mg/kg
Mus musculus [5]
  ED50: > 100 mg/kg
Mus musculus [6]
  ED50: 40 mg/kg
Mus musculus [7]
  ED50: > 100 mg/kg
Mus musculus [8]
  ED50: 8.9 mg/kg
Mus musculus [9]
  ED50: 56 mg/kg
Mus musculus [10]
  ED50: > 80 mg/kg
Mus musculus [11]
  ED50: > 80 mg/kg

## Clc1ccc2c(c1)C(c1ccccc1)=NCc1nccn1-2
Mus musculus [1]
  ED50: 1 mg/kg
Mus musculus [2]
  ED50: 7 mg/kg
Mus musculus [3]
  ED50: 25 mg/kg
Mus musculus [4]
  ED50: 4 mg/kg
Mus musculus [5]
  ED50: 16 mg/kg
Mus musculus [6]
  ED50: 2.2 mg/kg
Mus musculus [7]
  ED50: 32 mg/kg
Mus musculus [8]
  ED50: 1.6 mg/kg
Mus musculus [9]
  ED50: 5 mg/kg
Mus musculus [10]
  ED50: 3.6 mg/kg
Mus musculus [11]
  ED50: 3.6 mg/kg

## OC1N=C(c2ccccc2)c2cc(Cl)ccc2-n2ccnc21 (stereo not given)
Mus musculus [1]
  ED50: 4 mg/kg
Mus musculus [2]
  ED50: > 80 mg/kg
Mus musculus [3]
  ED50: 60 mg/kg
Mus musculus [4]
  ED50: 7 mg/kg
Mus musculus [5]
  ED50: 32 mg/kg
Mus musculus [6]
  ED50: 6.3 mg/kg
Mus musculus [7]
  ED50: 63 mg/kg
Mus musculus [8]
  ED50: 6.3 mg/kg
Mus musculus [9]
  ED50: 6 mg/kg
Mus musculus [10]
  ED50: > 25 mg/kg
Mus musculus [11]
  ED50: 7.9 mg/kg

## Cc1nnc2n1-c1ccc(Cl)cc1C(c1ccccc1)=NC2O (stereo not given) [4-HYDROXY-ALPRAZOLAM]
Mus musculus [1]
  ED50: 4 mg/kg
Mus musculus [2]
  ED50: 25 mg/kg
Mus musculus [3]
  ED50: 6.2 mg/kg
Mus musculus [4]
  ED50: 20 mg/kg
Mus musculus [5]
  ED50: 23 mg/kg
Mus musculus [6]
  ED50: 0.7 mg/kg
Mus musculus [7]
  ED50: > 50 mg/kg
Mus musculus [8]
  ED50: 5 mg/kg
Mus musculus [9]
  ED50: 6.3 mg/kg
Mus musculus [10]
  ED50: 6.3 mg/kg
Mus musculus [11]
  ED50: 10 mg/kg

## CN(C)Cc1nnc2n1-c1ccc(Cl)cc1C(c1ccccc1)=NC2 [ADINAZOLAM]
Mus musculus [1]
  ED50: 0.2 mg/kg
Mus musculus [2]
  ED50: > 200 mg/kg
Mus musculus [3]
  ED50: 1.9 mg/kg
Mus musculus [4]
  ED50: 2.8 mg/kg
Mus musculus [5]
  ED50: 5.6 mg/kg
Mus musculus [6]
  ED50: 0.8 mg/kg
Mus musculus [7]
  ED50: 100 mg/kg
Mus musculus [8]
  ED50: 0.15 mg/kg
Mus musculus [9]
  ED50: 1.5 mg/kg
Mus musculus [10]
  ED50: 3.6 mg/kg
Mus musculus [11]
  ED50: 2.2 mg/kg

## Cc1nnc2n1-c1ccc(Cl)cc1C(c1ccccc1)=NC2 [ALPRAZOLAM]
Mus musculus [1]
  ED50: 0.02 mg/kg
Mus musculus [2]
  ED50: 0.3 mg/kg
Mus musculus [3]
  ED50: 0.02 mg/kg
Mus musculus [4]
  ED50: 0.23 mg/kg
Mus musculus [5]
  ED50: 0.6 mg/kg
Mus musculus [6]
  ED50: 0.13 mg/kg
Mus musculus [7]
  ED50: 25 mg/kg
Mus musculus [8]
  ED50: 0.16 mg/kg
Mus musculus [9]
  ED50: 0.15 mg/kg
Mus musculus [10]
  ED50: 0.09 mg/kg
Mus musculus [11]
  ED50: 0.18 mg/kg

## CN1C(=O)CN=C(c2ccccc2)c2cc(Cl)ccc21 [DIAZEPAM]
Mus musculus [1]
  ED50: 0.1 mg/kg
Mus musculus [2]
  ED50: 4 mg/kg
Mus musculus [3]
  ED50: 0.2 mg/kg
Mus musculus [4]
  ED50: 0.7 mg/kg
Mus musculus [5]
  ED50: 4 mg/kg
Mus musculus [6]
  ED50: 0.8 mg/kg
Mus musculus [7]
  ED50: 25 mg/kg
Mus musculus [8]
  ED50: 0.4 mg/kg
Mus musculus [9]
  ED50: 0.25 mg/kg
Mus musculus [10]
  ED50: 1.2 mg/kg
Mus musculus [11]
  ED50: 1 mg/kg

## O=C1CN=C(c2ccccc2)c2cc(Cl)ccc2N1 [NORDAZEPAM]
Mus musculus [1]
  ED50: 0.3 mg/kg
Mus musculus [2]
  ED50: 20 mg/kg
Mus musculus [3]
  ED50: 0.7 mg/kg
Mus musculus [4]
  ED50: 0.9 mg/kg
Mus musculus [5]
  ED50: 7 mg/kg
Mus musculus [6]
  ED50: 1.6 mg/kg
Mus musculus [7]
  ED50: > 100 mg/kg
Mus musculus [8]
  ED50: 1.8 mg/kg
Mus musculus [9]
  ED50: 0.5 mg/kg
Mus musculus [10]
  ED50: 0.7 mg/kg
Mus musculus [11]
  ED50: 1.8 mg/kg

## O=C1Nc2ccc(Cl)cc2C(c2ccccc2)=NC1O (stereo not given) [OXAZEPAM]
Mus musculus [1]
  ED50: 0.14 mg/kg
Mus musculus [2]
  ED50: 9 mg/kg
Mus musculus [3]
  ED50: 12.5 mg/kg
Mus musculus [4]
  ED50: 2 mg/kg
Mus musculus [5]
  ED50: 13 mg/kg
Mus musculus [6]
  ED50: 0.7 mg/kg
Mus musculus [7]
  ED50: 79 mg/kg
Mus musculus [8]
  ED50: 0.9 mg/kg
Mus musculus [9]
  ED50: 1.1 mg/kg
Mus musculus [10]
  ED50: 1.8 mg/kg
Mus musculus [11]
  ED50: 1.8 mg/kg

## CN1C(=O)C(O)N=C(c2ccccc2)c2cc(Cl)ccc21 (stereo not given) [TEMAZEPAM]
Mus musculus [1]
  ED50: 0.063 mg/kg
Mus musculus [2]
  ED50: 2.8 mg/kg
Mus musculus [3]
  ED50: 0.2 mg/kg
Mus musculus [4]
  ED50: 0.7 mg/kg
Mus musculus [5]
  ED50: 4 mg/kg
Mus musculus [6]
  ED50: 0.3 mg/kg
Mus musculus [7]
  ED50: 10 mg/kg
Mus musculus [8]
  ED50: 0.3 mg/kg
Mus musculus [9]
  ED50: 0.36 mg/kg
Mus musculus [10]
  ED50: 0.45 mg/kg
Mus musculus [11]
  ED50: 0.32 mg/kg

## Cc1nnc2n1-c1ccc(Cl)cc1C(c1ccccc1Cl)=NC2 [TRIAZOLAM]
Mus musculus [1]
  ED50: 0.004 mg/kg
Mus musculus [2]
  ED50: 0.22 mg/kg
Mus musculus [3]
  ED50: 0.035 mg/kg
Mus musculus [4]
  ED50: 0.03 mg/kg
Mus musculus [5]
  ED50: 0.3 mg/kg
Mus musculus [6]
  ED50: 0.009 mg/kg
Mus musculus [7]
  ED50: 30 mg/kg
Mus musculus [8]
  ED50: 0.02 mg/kg
Mus musculus [9]
  ED50: 0.03 mg/kg
Mus musculus [10]
  ED50: 0.08 mg/kg
Mus musculus [11]
  ED50: 0.7 mg/kg

From ChEMBL document CHEMBL3244316, “Pharmacology of some metabolites of triazolam, alprazolam, and diazepam prepared by a simple, one-step oxidation of benzodiazepines” (1978)
